Test results reported in EPA's ToxValDB 9.5 (doi:10.2903/j.efsa.2015.4100).
≈ marks a conversion by molar mass, not a printed value.

Legend:
Apis mellifera = settings: acute, mortality
Bibionidae = settings: chronic/long-term; duration: 28 days; reproduction
Canidae = settings: chronic; duration: 52 weeks; oral; Dog Other; organ weight
Daphnia magna = settings: chronic/long-term; duration: 21 days; reproduction
Neomysis kadiakensis = settings: mortality
Oncorhynchus mykiss = settings: acute; duration: 96 hours; mortality
Pimephales promelas = settings: chronic/long-term; duration: 32 days; reproduction
Aphidius rhopalosiphi = test: LR50; higher = less toxic; settings: not reported; mortality
Typhlodromus pyri = test: LR50; higher = less toxic; settings: not reported; mortality

With `CNC(=O)C(OC)c1ccccc1COc1cc(C)ccc1C` (centres undefined) [Mandestrobin] the LD50 (Apis mellifera; dermal) was > 100 µg/piece, the LD50 (Apis mellifera; oral, unspecified) was > 111 µg/piece and the NOEC (Bibionidae) was 8.1 mg/L. For the same compound, the NOAEL (Canidae) was 19 mg/kg-day, the LC50 (Colinus virginianus; acute, duration: 8 days, oral, diet, mortality) was > 1340 mg/kg-day and the LD50 (Colinus virginianus; acute, oral, mortality) was > 2250 mg/kg-day. For the same compound, the NOEC (Colinus virginianus; reproduction developmental, duration: 21 weeks, reproduction) was 91.1 mg/kg-day, the NOEC (Daphnia magna) was 0.56 mg/L and the LC50 (Neomysis kadiakensis; acute, duration: 96 hours) was 0.43 mg/L (≈ 1.37 µM). The NOEC (Neomysis kadiakensis; chronic/long-term, duration: 36 days) was 0.0036 mg/L, the LC50 (Oncorhynchus mykiss) was 0.84 mg/L (≈ 2.68 µM) and the NOEC (Pimephales promelas) was 0.15 mg/L. For the same compound, the LD50 (Rattus norvegicus; acute, oral, mortality) was > 200 mg/kg-day, the NOAEL (Rattus norvegicus; reproduction developmental) was 163 mg/kg-day and the LOAEL (Rattus norvegicus; reproduction developmental, organ weight) was 60.2 mg/kg-day. The LC50 (Tagia sp.; acute, duration: 14 days, mortality) was 84 mg/kg, the NOEC (Tagia sp.; chronic/long-term, duration: 56 days) was 3.75 mg/kg and the LR50 (Aphidius rhopalosiphi) was > 1000 g/ha. For the same compound, the LR50 (Typhlodromus pyri) was > 1000 g/ha.
